The test system of data set [1] is sarco/endoplasmic reticulum Ca^2+-ATPases (SERCAs). As to conditions: cited from earlier work; for inhibition of sarco/endoplasmic reticulum Ca^2+-ATPases (SERCAs): qualitative statement, no own test.

The values below come from patent US20200031793A1, “Synthesis of Thapsigargin, Nortrilobolide, and Analogs Thereof” (priority 2017, published 2020).

Usually melting point stands for the temperature, or range, at which the solid turns liquid. For the molecule `CC1=C2[C@@H]3OC(=O)[C@@](C)(O[Si](C)(C)C)[C@@]3(O)[C@H](OCc3ccccc3)C[C@](C)(O)[C@H]2C[C@H]1O[Si](C)(C)C(C)(C)C`, the melting point is 176.1 to 178.5 °C.

As for `C/C=C(/C)C(=O)O[C@@H]1C[C@H]2C(=C1C)[C@@H]1OC(=O)[C@@](C)(O)[C@@]1(O)[C@@H](OC(=O)CCC)C[C@]2(C)OC(C)=O` [nortrilobolide], the “inhibition of sarco/endoplasmic reticulum Ca^2+-ATPases (SERCAs)” value in data set [1] is “potent inhibitor”. Also, the “inhibition of Sarco/endoplasmic reticulum Ca^2+-ATPase compared with thapsigargin (1)” value in data set [1] (relative to 1 (thapsigargin)) was “equipotent inhibition”.

On to thapsigargin, for which the “inhibition of sarco/endoplasmic reticulum Ca^2+-ATPases (SERCAs)” value in data set [1] was “highly selective subnanomolar inhibitor”.
